This passage reports GI50 and TGI results from PubChem BioAssay (NCI).

Some test systems named below: A498 renal; ACHN renal; HS 578T breast; HT29 colon; OVCAR-3 ovarian; RPMI-8226 leukemia; SK-MEL-5 melanoma; SW-620 colon; UACC-257 melanoma; UACC-62 melanoma.
What all share (assay): NCI tumour cell line growth inhibition, 48 h

Where “and” joins values, the source holds several entries; their conditions need not be identical. Equal entries are not always repeated.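 Compound exposure: 48 hours, 5 concentrations, 96-well plates. Abbreviation: GI50, concentration required for 50% inhibition of growth. TGI marks complete inhibition of growth.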 A value given as a limit tells only on which side of the number the result lay.

With `O=c1c2cccc(F)c2sc2c(NCCCNCCO)nc3ccccc3c12`, the GI50 in the experiment with A498 renal was 1.5 µM; in the experiment on ACHN renal, 1.28 µM; in the experiment on HS 578T breast it was 1.55 µM; in the experiment on HT29 colon, 1.51 µM; with OVCAR-3 ovarian, 1.7 µM; in the experiment with RPMI-8226 leukemia, 1.76 µM. Further, the GI50 is 1.71 µM with SK-MEL-5 melanoma, 1.22 µM in the experiment with SW-620 colon, 2.03 µM with UACC-257 melanoma and 1.77 µM in the experiment on UACC-62 melanoma. For the same compound, the TGI was found to be 2.88 µM in the experiment on A498 renal; 2.54 µM in the experiment with ACHN renal; 3.53 µM with HS 578T breast; 3.25 µM in the experiment with HT29 colon; 3.12 µM in the experiment on OVCAR-3 ovarian; 3.99 µM with RPMI-8226 leukemia. For the same compound, the TGI in the experiment with SK-MEL-5 melanoma was 3.09 µM; in the experiment on SW-620 colon, 2.62 µM; in the experiment with UACC-257 melanoma, 3.99 µM; in the experiment with UACC-62 melanoma, 3.26 µM.
`CC(C)(C)[Si](C)(C)OC1[C@@H](O[Si](C)(C)C(C)(C)C)[C@@H](CNC(=O)NC(=O)NC(=O)CCl)O[C@H]1n1cnc2c(NC(=O)Nc3ccccc3)ncnc21` (some centres undefined): the GI50 is 6.46 µM with A498 renal; 5.03 µM in the experiment on ACHN renal; 4.52 µM in the experiment with HS 578T breast; 1.43 µM in the experiment on HT29 colon; 1.82 µM with OVCAR-3 ovarian; 1.56 µM in the experiment with RPMI-8226 leukemia. Also, the GI50 is 8.21 µM with SK-MEL-5 melanoma, 3.52 µM in the experiment with SW-620 colon, 5.64 µM in the experiment on UACC-257 melanoma and 8.41 µM in the experiment on UACC-62 melanoma. For the same compound, the TGI with A498 renal stood at 13.3 µM; in the experiment with ACHN renal, 12.2 µM; with HS 578T breast, 20.6 µM; in the experiment with HT29 colon it was 3.67 µM; in the experiment on OVCAR-3 ovarian, 4.87 µM; with RPMI-8226 leukemia, 5.95 µM. Moreover, the TGI with SK-MEL-5 melanoma is 15 µM; with SW-620 colon, 11.6 µM; with UACC-257 melanoma it was 13.2 µM; in the experiment on UACC-62 melanoma, 18.6 µM.
As for `O=C(/C=C\c1cc(Br)ccc1O)/C=C/c1cc(Br)ccc1O`, the GI50 in the experiment with A498 renal was 1.65 µM; in the experiment with ACHN renal it was 0.661 µM; in the experiment with HS 578T breast it was 1.25 µM; in the experiment on HT29 colon, 0.451 µM; with OVCAR-3 ovarian it was 0.351 µM; with RPMI-8226 leukemia it was 0.3 µM. For the same compound, the GI50 with SK-MEL-5 melanoma is 0.426 µM; in the experiment on SW-620 colon, 0.379 µM; in the experiment with UACC-257 melanoma, 1.54 µM; in the experiment with UACC-62 melanoma it was 0.429 µM. For the same compound, the TGI in the experiment on A498 renal was 3.26 µM; in the experiment with ACHN renal it was 2.05 µM; in the experiment with HS 578T breast it was 39.2 µM; with HT29 colon, 1.84 µM; with OVCAR-3 ovarian, 1.13 µM; in the experiment with RPMI-8226 leukemia, 1.4 µM. Besides, the TGI in the experiment with SK-MEL-5 melanoma turned out to be 1.66 µM; in the experiment on SW-620 colon, 1.61 µM; in the experiment on UACC-257 melanoma, 4.09 µM; in the experiment with UACC-62 melanoma, 1.8 µM.
Take `CC(C)n1nc(C#Cc2cccc(O)c2)c2c(N)ncnc21`: the GI50 with A498 renal is 1.56 µM and 1.71 µM; with ACHN renal it was 1.05 µM and 0.461 µM; with HS 578T breast, 0.583 µM and 0.17 µM; in the experiment on HT29 colon it was 2.04 µM and 1.74 µM; in the experiment with OVCAR-3 ovarian it was 1.32 µM and 1.7 µM; in the experiment with RPMI-8226 leukemia, 1.13 µM and 0.516 µM. Moreover, the GI50 was 1.72 µM and 0.887 µM in the experiment with SK-MEL-5 melanoma; 2.08 µM and 1.72 µM with SW-620 colon; 1.22 µM and 1.63 µM in the experiment with UACC-257 melanoma; 0.82 µM and 0.346 µM with UACC-62 melanoma. The TGI in the experiment with A498 renal was 6.5 µM and 4.29 µM; in the experiment on ACHN renal, 4.18 µM and 3.96 µM; in the experiment on HS 578T breast, 1.88 µM and 0.632 µM; in the experiment with HT29 colon it was 50 µM and 19.4 µM; in the experiment on OVCAR-3 ovarian, 5.62 µM and 7.63 µM; with RPMI-8226 leukemia, 5.78 µM and 6.19 µM. Moreover, the TGI with SK-MEL-5 melanoma was 6.39 µM and 2.67 µM; in the experiment on SW-620 colon, 50 µM and 31.9 µM; in the experiment on UACC-257 melanoma it was 6.17 µM and 4.95 µM; with UACC-62 melanoma, 2.59 µM and 1.58 µM.
Turning to `CCSc1nc(NC(C)c2ccccc2)c2cnn(CO)c2n1` (centres undefined), the GI50 was 27 µM in the experiment with A498 renal; 76 µM with ACHN renal; 8.09 µM in the experiment on HS 578T breast; more than 100 µM with HT29 colon; 64.7 µM in the experiment with OVCAR-3 ovarian; more than 100 µM with RPMI-8226 leukemia. Further, the GI50 was 3.18 µM in the experiment with SK-MEL-5 melanoma, 67.9 µM in the experiment on SW-620 colon, 6.91 µM in the experiment on UACC-257 melanoma and 26.6 µM in the experiment with UACC-62 melanoma. Besides, the TGI in the experiment on A498 renal is more than 100 µM; in the experiment on ACHN renal, more than 100 µM; in the experiment with HS 578T breast it was 99.4 µM; in the experiment with HT29 colon, more than 100 µM; with OVCAR-3 ovarian, more than 100 µM; with RPMI-8226 leukemia, more than 100 µM. Moreover, the TGI in the experiment on SK-MEL-5 melanoma is 25.9 µM; in the experiment on SW-620 colon it was more than 100 µM; in the experiment with UACC-257 melanoma, more than 100 µM; with UACC-62 melanoma, more than 100 µM.
Take `O=C(O)c1ccc(NCc2nc3ccccc3[nH]2)cc1`: the TGI in the experiment with A498 renal, with ACHN renal, in the experiment on HS 578T breast, with HT29 colon, with OVCAR-3 ovarian and in the experiment with RPMI-8226 leukemia was more than 100 µM each time. Also, the TGI in the experiment with SK-MEL-5 melanoma, with SW-620 colon, in the experiment with UACC-257 melanoma and in the experiment with UACC-62 melanoma was more than 100 µM in each case. The GI50 with ACHN renal, with HS 578T breast, in the experiment on HT29 colon, in the experiment on OVCAR-3 ovarian, in the experiment on RPMI-8226 leukemia and in the experiment with SK-MEL-5 melanoma was more than 100 µM throughout. Further, the GI50 in the experiment on SW-620 colon, in the experiment on UACC-257 melanoma and in the experiment on UACC-62 melanoma was more than 100 µM throughout.
For `Cc1ccc(/C=C(/C#N)n2nnc3ncccc32)cc1`, the GI50 in the experiment on A498 renal was 2.28 µM; in the experiment on ACHN renal, 2.66 µM; with HS 578T breast it was 2.95 µM; in the experiment on HT29 colon, 2.08 µM; in the experiment with OVCAR-3 ovarian it was 0.801 µM; in the experiment with RPMI-8226 leukemia, 3 µM. Further, the GI50 in the experiment on SK-MEL-5 melanoma was 2.89 µM; with SW-620 colon it was 1.2 µM; with UACC-257 melanoma, 4.24 µM; in the experiment with UACC-62 melanoma it was 3.2 µM. Moreover, the TGI in the experiment with A498 renal is 7.51 µM; with ACHN renal, 13.4 µM; in the experiment on HS 578T breast, more than 100 µM; with HT29 colon, 11.5 µM; in the experiment on OVCAR-3 ovarian, 3.74 µM; in the experiment with RPMI-8226 leukemia, 9.73 µM. The TGI was determined as 12.8 µM in the experiment with SK-MEL-5 melanoma, 12 µM in the experiment with SW-620 colon, 22.2 µM with UACC-257 melanoma and 15.8 µM in the experiment with UACC-62 melanoma.
